The subject of assay [1] is Staphylococcus aureus. As to the kind of experiment: Antibacterial activity against Staphylococcus aureus ATCC 25923 after 18 hrs. Type of assay: functional. The note with it: ATCC 25923, 18 h.
The test system of assay [2] is Staphylococcus aureus. The assay is described as follows: Antibacterial activity against Staphylococcus aureus ATCC 6538p after 18 hrs. Type of assay: functional.
Assay [3] concerns Staphylococcus aureus. As to the kind of experiment: Antibacterial activity against methicillin-resistant Staphylococcus aureus isolate 1 after 18 hrs. The assay is classed as functional.
Assay [4] relates to Staphylococcus aureus. As to the kind of experiment: Antibacterial activity against methicillin-resistant Staphylococcus aureus isolate 2 after 18 hrs. Type of assay: functional.
Assay [5] has as its system Staphylococcus epidermidis. As to the kind of experiment: Antibacterial activity against Staphylococcus epidermidis ATCC 14940 after 18 hrs. The assay is classed as functional. The note with it: ATCC 14940, 18 h.
The test system of assay [6] is Staphylococcus epidermidis. As to the kind of experiment: Antibacterial activity against Staphylococcus epidermidis ATCC 12228 after 18 hrs. Type of assay: functional. The note with it: ATCC 12228, 18 h.
The test system of another assay is Bacillus subtilis. As to the kind of experiment: Antibacterial activity against Bacillus subtilis ATCC 6051 after 18 hrs. The assay is classed as functional. The note with it: ATCC 6051, 18 h.
Another assay deals with Enterococcus faecalis. The assay is described as follows: Antibacterial activity against Enterococcus faecalis NCTC 6013 after 18 hrs. Type of assay: functional. As to conditions: NCTC 6013, 18 h.
A further assay relates to Serratia marcescens. The assay is described as follows: Antibacterial activity against Serratia marcescens PTCC 1111 after 18 hrs. The assay is classed as functional.
Assay [7] relates to Escherichia coli. The assay is described as follows: Antibacterial activity against Escherichia coli ATCC 25922 after 18 hrs. The assay is classed as functional. The note with it: ATCC 25922, 18 h.
Assay [8] relates to Escherichia coli. The assay is described as follows: Antibacterial activity against Escherichia coli NCTC 12900 after 18 hrs. Type of assay: functional. As to conditions: NCTC 12900, 18 h.
The test system of another assay is Klebsiella pneumoniae. The assay is described as follows: Antibacterial activity against Klebsiella pneumoniae ATCC 10031 after 18 hrs. The assay is classed as functional. As to conditions: ATCC 10031, 18 h.
The subject of a further assay is Salmonella typhi. As to the kind of experiment: Antibacterial activity against Salmonella typhi ATCC 19430 after 18 hrs. Type of assay: functional, Salmonella enterica subsp. enterica serovar Typhi. The note with it: Salmonella enterica, ATCC 19430, 18 h.
The next assay has as its system Shigella flexneri. As to the kind of experiment: Antibacterial activity against Shigella flexneri NCTC 8516 after 18 hrs. The assay is classed as functional. As to conditions: NCTC 8516, 18 h.
In another assay the test system is Pseudomonas aeruginosa. As to the kind of experiment: Antibacterial activity against Pseudomonas aeruginosa ATCC 27853 after 18 hrs. The assay is classed as functional. The note with it: ATCC 27853, 18 h.
Another assay concerns MCF7. As to the kind of experiment: Cytotoxic activity against human MCF7 cells after 48 hrs by MTT reduction assay. As to conditions: for IC50: MCF7, 48 h. Type of assay: functional, cell-based. Background: Tetrazolium assays rely on reduction of a dye to a coloured formazan, in cell work by metabolically active cells.

As a reminder, the MIC is the least concentration at which growth counts as inhibited. A word on the IC50: it is the concentration that inhibits the measured activity by half. Read a high IC50 as lower potency.

≈ marks a conversion by molar mass, not a printed value. Calls of active or inactive are those of the source. The rule behind the calls is not given here. Bounds are passed on as bounds.

Regarding `C[C@H]1COc2c(N3CCN(C/C(=N\O)c4ccc(Br)cc4)CC3)c(F)cc3c(=O)c(C(=O)O)cn1c23`, the MIC was 0.5 µg/mL (≈ 0.894 µM) against Staphylococcus aureus [1]; 0.5 µg/mL (≈ 0.894 µM) with Staphylococcus aureus [2]; 0.5 µg/mL (≈ 0.894 µM) against Staphylococcus aureus [3]; 0.5 µg/mL (≈ 0.894 µM) with Staphylococcus aureus [4]; 0.12 µg/mL (≈ 0.215 µM) in assay [5]; 0.25 µg/mL (≈ 0.447 µM) in [6]. For the same compound, the MIC is 0.12 µg/mL (≈ 0.215 µM) in the assay on Bacillus subtilis; 0.06 µg/mL (≈ 0.107 µM) against Enterococcus faecalis; more than 4 µg/mL with Serratia marcescens; 4 µg/mL (≈ 7.15 µM) against Escherichia coli [7]; 1 µg/mL (≈ 1.79 µM) against Escherichia coli [8]; more than 4 µg/mL against Klebsiella pneumoniae. In addition, the MIC against Salmonella typhi is 0.5 µg/mL (≈ 0.894 µM); with Shigella flexneri, 0.5 µg/mL (≈ 0.894 µM); in the assay with Pseudomonas aeruginosa, more than 4 µg/mL. Moreover, 5.2 µM corresponded to half-maximal inhibition in the assay with MCF7 (IC50).

As to `C[C@H]1COc2c(N3CCN(C/C(=N\O)c4ccc(Cl)cc4)CC3)c(F)cc3c(=O)c(C(=O)O)cn1c23`, the MIC in the assay with Staphylococcus aureus [1] worked out at 0.5 µg/mL (≈ 0.971 µM); against Staphylococcus aureus [2] it was 0.25 µg/mL (≈ 0.485 µM); in the assay with Staphylococcus aureus [3], 0.5 µg/mL (≈ 0.971 µM); in the assay on Staphylococcus aureus [4], 0.25 µg/mL (≈ 0.485 µM); in assay [5], 0.12 µg/mL (≈ 0.233 µM); in [6], 0.25 µg/mL (≈ 0.485 µM). Further, the MIC in the assay on Bacillus subtilis is 0.25 µg/mL (≈ 0.485 µM); against Enterococcus faecalis, 0.06 µg/mL (≈ 0.117 µM); in the assay on Serratia marcescens, more than 4 µg/mL; in the assay on Escherichia coli [7], 2 µg/mL (≈ 3.88 µM); against Escherichia coli [8], 1 µg/mL (≈ 1.94 µM); in the assay on Klebsiella pneumoniae, more than 4 µg/mL. Besides, the figures for the MIC with Salmonella typhi, in the assay with Shigella flexneri and in the assay on Pseudomonas aeruginosa were 0.5 µg/mL (≈ 0.971 µM), 0.5 µg/mL (≈ 0.971 µM) and more than 4 µg/mL, respectively. Also, in the assay on MCF7, the IC50 came to 5.2 µM.

`C[C@H]1COc2c(N3CCN(CC(=O)c4ccc(Br)cc4)CC3)c(F)cc3c(=O)c(C(=O)O)cn1c23`: the MIC against Staphylococcus aureus [1] worked out at 0.5 µg/mL (≈ 0.918 µM); with Staphylococcus aureus [2], 1 µg/mL (≈ 1.84 µM); against Staphylococcus aureus [3], 1 µg/mL (≈ 1.84 µM); in the assay with Staphylococcus aureus [4], 0.5 µg/mL (≈ 0.918 µM); in assay [5] it was 0.25 µg/mL (≈ 0.459 µM); in [6], 0.25 µg/mL (≈ 0.459 µM). The MIC in the assay on Bacillus subtilis was 0.25 µg/mL (≈ 0.459 µM); in the assay with Enterococcus faecalis, 0.12 µg/mL (≈ 0.22 µM); in the assay with Serratia marcescens, 4 µg/mL (≈ 7.35 µM); against Escherichia coli [7], 0.5 µg/mL (≈ 0.918 µM); against Escherichia coli [8], 0.5 µg/mL (≈ 0.918 µM); with Klebsiella pneumoniae it was more than 4 µg/mL. In addition, the MIC against Salmonella typhi was 0.5 µg/mL (≈ 0.918 µM); against Shigella flexneri it was 0.5 µg/mL (≈ 0.918 µM); against Pseudomonas aeruginosa, more than 4 µg/mL. The compound further gave an IC50 with MCF7 of 5.2 µM.

With `C[C@H]1COc2c(N3CCN(CC(=O)c4ccc(Cl)cc4)CC3)c(F)cc3c(=O)c(C(=O)O)cn1c23`, the MIC in the assay with Staphylococcus aureus [1] came to 0.5 µg/mL (≈ 1 µM); in the assay on Staphylococcus aureus [2], 0.5 µg/mL (≈ 1 µM); in the assay on Staphylococcus aureus [3], 0.25 µg/mL (≈ 0.5 µM); with Staphylococcus aureus [4], 0.25 µg/mL (≈ 0.5 µM); in assay [5], 0.12 µg/mL (≈ 0.24 µM); in assay [6], 0.25 µg/mL (≈ 0.5 µM). Moreover, the MIC against Bacillus subtilis is 0.12 µg/mL (≈ 0.24 µM); with Enterococcus faecalis, 0.06 µg/mL (≈ 0.12 µM); against Serratia marcescens, 4 µg/mL (≈ 8 µM); with Escherichia coli [7], 0.5 µg/mL (≈ 1 µM); with Escherichia coli [8], 1 µg/mL (≈ 2 µM); in the assay with Klebsiella pneumoniae, more than 4 µg/mL. The MIC in the assay with Salmonella typhi was 0.25 µg/mL (≈ 0.5 µM); in the assay with Shigella flexneri, 0.25 µg/mL (≈ 0.5 µM); with Pseudomonas aeruginosa, more than 4 µg/mL. The same compound registered an IC50 in the assay on MCF7 of 5.2 µM.

For the compound `C[C@H]1COc2c(N3CCN(C/C(=N\OCc4ccccc4)c4ccccc4)CC3)c(F)cc3c(=O)c(C(=O)O)cn1c23`, the MIC (in the assay on Staphylococcus aureus [1]; in the assay with Staphylococcus aureus [2]; in the assay with Staphylococcus aureus [3]; in the assay on Staphylococcus aureus [4]; in assay [5]; in assay [6]) was more than 4 µg/mL throughout. The MIC in the assay with Bacillus subtilis, in the assay with Enterococcus faecalis, against Serratia marcescens, against Escherichia coli [7], against Escherichia coli [8] and in the assay on Klebsiella pneumoniae was more than 4 µg/mL throughout. Moreover, the MIC in the assay on Salmonella typhi, in the assay with Shigella flexneri and with Pseudomonas aeruginosa was more than 4 µg/mL each time. In addition, in the assay on MCF7, the result was inactive.

In the assay with MCF7, `COc1cc([C@@H]2c3cc4c(cc3[C@@H](O[C@@H]3O[C@@H]5CO[C@@H](C)O[C@H]5[C@H](O)[C@H]3O)[C@H]3COC(=O)[C@H]23)OCO4)cc(OC)c1O` [ETOPOSIDE] displayed an IC50 of 3.2 µM.

Turning to `C[C@H]1COc2c(N3CCNCC3)c(F)cc3c(=O)c(C(=O)O)cn1c23` [N-DESMETHYL LEVOFLOXACIN], the MIC in the assay on Staphylococcus aureus [1] came out at 4 µg/mL (≈ 11.5 µM); with Staphylococcus aureus [2] it was 2 µg/mL (≈ 5.76 µM); against Staphylococcus aureus [3], 2 µg/mL (≈ 5.76 µM); against Staphylococcus aureus [4] it was 2 µg/mL (≈ 5.76 µM); in assay [5], 1 µg/mL (≈ 2.88 µM); in [6], 1 µg/mL (≈ 2.88 µM). The MIC in the assay with Bacillus subtilis was determined as 1 µg/mL (≈ 2.88 µM); against Enterococcus faecalis, 0.06 µg/mL (≈ 0.173 µM); in the assay on Serratia marcescens, 1 µg/mL (≈ 2.88 µM); with Escherichia coli [7], 0.12 µg/mL (≈ 0.345 µM); with Escherichia coli [8], 0.12 µg/mL (≈ 0.345 µM); with Klebsiella pneumoniae, 0.25 µg/mL (≈ 0.72 µM). In addition, the MIC against Salmonella typhi is 0.06 µg/mL (≈ 0.173 µM); in the assay with Shigella flexneri, 0.06 µg/mL (≈ 0.173 µM); with Pseudomonas aeruginosa, more than 4 µg/mL.

Values taken from ChEMBL document CHEMBL1147210, “Synthesis and antibacterial activity of levofloxacin derivatives with certain bulky residues on piperazine ring” (Eur J Med Chem, 2007).
